Measurements taken from patent US4711890A, “Pharmaceutical compositions containing azanaphthalene-carboxamide derivatives, azanaphthalene-carboxamide derivatives and process for their use” (Rhone-Poulenc Sante, priority 1982, dated 1987).

Test system: binding sites for [^3 H] diazepam in the brain
Experiment: not given
Conditions: [3H] diazepam sites; cited from earlier work

| SMILES | affinity / activity at brain (central) binding sites, in words |
| --- | --- |
| CN1C(=O)CN=C(c2ccc(Cl)cc2)c2cc(Cl)ccc21 [Ro-5-4864, 7-chloro-5-(p-chlorophenyl)-1,3-dihydro-1-methyl-2H-1,4-benzodiazepin-2-one] | inactive |
| O=C1CN=C(c2ccccc2Cl)c2cc([N+](=O)[O-])ccc2N1 [clonazepam] | very strong affinity |

Test system: not given
Experiment: not given
Conditions: GHAZAL et al., Egypt. Pharm. Bull., 1960, 42, 465; cited from earlier work

| SMILES | pharmacological properties described in the literature |
| --- | --- |
| CCN(CC)C(=O)c1cc(-c2ccccc2)nc2ccccc12 [Example 1, N,N-diethyl-2-phenylquinoline-4-carboxamide] | uricosuric and anti-pyretic properties |

Molecular target: T1, peripheral-type receptor sites for benzodiazepines (Rattus norvegicus, UniProt P16257)
T1 construct: on rat kidney membranes; from tissue; host or cells: rat kidney membranes
Experiment: Affinity for the peripheral-type receptor sites for benzodiazepines: displacement of 3H-diazepam on rat kidney membranes
Type: binding
Conditions: peripheral versus cerebral benzodiazepine receptors
Method: The affinity of the compounds of formula (I) for the peripheral-type receptor sites was determined, using the procedure of BRAESTRUP et al., Proc. Natl. Acad. Sci. U.S.A., 1977, 74, 3805, on rat kidney membranes.

| SMILES | preferential action on peripheral receptors (versus cerebral) |
| --- | --- |
| CCN(CC)C(=O)c1cc(-c2ccccc2)cc2ccccc12 [Example 20, N,N-diethyl-3-phenylnaphthalene-1-carboxamide] | act preferentially on peripheral receptors |

Same assay, conditions: rat kidney membranes, 3H-diazepam displacement

| SMILES | Ki [nM] |
| --- | --- |
| CCN(CC)C(=O)c1cc(-c2ccccc2Cl)nc2ccccc12 [Example 8, N,N-diethyl-2-(2-chlorophenyl)-quinoline-4-carboxamide] | 117 |
| CCN(CC)C(=O)c1cc(-c2ccc(F)cc2)nc2ccccc12 [Example 10, N,N-diethyl-2-(4-fluorophenyl)-quinoline-4-carboxamide] | 160 |
| CCC(C)N(C)C(=O)c1cc(-c2ccccc2Cl)nc2ccccc12 (stereo not drawn) [Example 15, N-methyl-N-(1-methylpropyl)-2-(2-chlorophenyl)-quinoline-4-carboxamide] | 31 |
| CCC(C)N(C(=O)c1cc(-c2ccccc2Cl)nc2ccccc12)C(C)CC (stereo not drawn) [Example 16, N,N-di-(1-methylpropyl)-2-(2-chlorophenyl)-quinoline-4-carboxamide] | 72 |
| CCC(C)N(CC)C(=O)c1cc(-c2ccccc2Cl)nc2ccccc12 (stereo not drawn) [Example 17, N-ethyl-N-(1-methylpropyl)-2-(2-chlorophenyl)-quinoline-4-carboxamide] | 9 |
| O=C(c1cc(-c2ccccc2Cl)nc2ccccc12)N1CCCCC1 [Example 18, 1-[2-(2-chlorophenyl)-quinolin-4-yl]-carbonylpiperidine] | 360 |
| CCN(CC)C(=O)c1cc(-c2ccccc2)cc2ccccc12 [Example 20, N,N-diethyl-3-phenylnaphthalene-1-carboxamide] | 2 |
| CCC(C)N(C)C(=O)c1cc(-c2ccccc2)cc2ccccc12 (stereo not drawn) [Example 21, N-methyl-N-(1-methylpropyl)-3-phenylnaphthalene-1-carboxamide] | 58 |
| CCN(CC)C(=O)c1nc(-c2ccccc2Cl)nc2ccccc12 [Example 22, N,N-diethyl-2-(2-chlorophenyl)-quinazoline-4-carboxamide] | 270 |
| CCN(CC)C(=O)c1cc(-c2ccc(Cl)c(Cl)c2)nc2ccccc12 [Example 37, N,N-diethyl-2-(3,4-dichlorophenyl)-quinoline-4-carboxamide] | 117 |
| CC1CCCC(C)N1C(=O)c1cc(-c2ccccc2Cl)nc2ccccc12 (stereo not drawn) [Example 39, 1-{[2-(2-chlorophenyl)-quinolin-4-yl]-carbonyl}-2,6-dimethylpiperidine] | 54 |
| CCC(C)N(C)C(=O)c1cc(-c2ccccc2)nc2ccccc12 (stereo not drawn) [Example 43, N-methyl-N-(1-methylpropyl)-2-phenylquinoline-4-carboxamide] | 100 |
| CCC(C)N(C)C(=O)c1nc(-c2ccccc2)cc2ccccc12 (stereo not drawn) [Example 51, N-methyl-N-(1-methylpropyl)-3-phenylisoquinoline-1-carboxamide] | 45 |

Test system: binding sites for [^3 H] diazepam in the kidneys
Experiment: not given
Conditions: kidneys / peripheral level, [3H] diazepam sites; cited from earlier work

| SMILES | affinity / activity at kidney (peripheral) binding sites, in words |
| --- | --- |
| CN1C(=O)CN=C(c2ccc(Cl)cc2)c2cc(Cl)ccc21 [Ro-5-4864, 7-chloro-5-(p-chlorophenyl)-1,3-dihydro-1-methyl-2H-1,4-benzodiazepin-2-one] | very active |
| O=C1CN=C(c2ccccc2Cl)c2cc([N+](=O)[O-])ccc2N1 [clonazepam] | virtually inactive |

Molecular target: cerebral receptor sites for benzodiazepines
Experiment: Affinity for the cerebral-type receptor sites for benzodiazepines: displacement of 3H-diazepam on rat brain membranes
Type: binding
Conditions: 3H-diazepam displacement
Method: The affinity of the compounds of formula (I) for the cerebral receptor sites for benzodiazepines was determined, by the method of MOHLER et al, Life Sciences, 1977, 20, 2101, on rat brain membranes.

| SMILES | Ki [nM] |
| --- | --- |
| CNC1=Nc2ccc(Cl)cc2C(c2ccccc2)=[N+]([O-])C1 [Chlorodiazepoxide, reference compound] | 80 |
| CCN(CC)C(=O)c1cc(-c2ccccc2)nc2ccccc12 [Example 1, N,N-diethyl-2-phenylquinoline-4-carboxamide] | 50 |
| O=C(c1cc(-c2ccccn2)nc2ccccc12)N1CCCCC1 [Example 3, 1-[2-(pyridin-2-yl)-quinolin-4-yl]-carbonylpiperidine] | 160 |
| O=C(c1cc(-c2ccccc2)nc2ccccc12)N1CCCCC1 [Example 4, 1-(2-phenylquinolin-4-yl)-carbonylpiperidine] | 40 |
| O=C(c1cc(-c2ccccc2)nc2ccccc12)N1CCOCC1 [Example 5, 4-(2-phenylquinolin-4-yl)-carbonylmorpholine] | 90 |
| CCN(CC)C(=O)c1cc(-c2ccc(F)cc2)nc2ccccc12 [Example 10, N,N-diethyl-2-(4-fluorophenyl)-quinoline-4-carboxamide] | 210 |
| O=C(c1cc(-c2ccccc2)nc2ccccc12)N1CCCC1 [Example 11, 1-(2-phenylquinolin-4-yl)-carbonylpyrrolidine] | 130 |
| CCN(CC)C(=O)c1cc(-c2ccc(C)cc2)nc2ccccc12 [Example 24, N,N-diethyl-2-(4-methylphenyl)-quinoline-4-carboxamide] | 330 |
| CCN(CC)C(=O)c1nc(-c2ccccc2)nc2ccccc12 [Example 25, N,N-diethyl-2-phenylquinazoline-4-carboxamide] | 390 |
| O=C(c1nc(-c2ccccc2)nc2ccccc12)N1CCCC1 [Example 26, 1-[(2-phenylquinazolin-4-yl)-carbonyl]-pyrrolidine] | 90 |
| O=C(c1nc(-c2ccccc2)nc2ccccc12)N1CCCCC1 [Example 27, 1-[(2-phenylquinazolin-4-yl)-carbonyl]-piperidine] | 70 |
| CCN(CC)C(=O)c1cc(-c2ccccc2F)nc2ccccc12 [Example 38, N,N-diethyl-2-(2-fluorophenyl)-quinoline-4-carboxamide] | 310 |
| CCN(CCC1CCNCC1)C(=O)c1cc(-c2ccccc2)nc2ccccc12 [Example 49, N-ethyl-N-[2-(piperidin-4-yl)-ethyl]-2-phenylquinoline-4-carboxamide] | 400 |
| O=C1CCN(C(=O)c2nc(-c3ccccc3)nc3ccccc23)CC1 [Example 53, 1-[(2-phenylquinazolin-4-yl)-carbonyl]-piperidin-4-one] | 270 |
